From PubChem BioAssay (NCI) come the findings set out here.

Several values for one entry are separate records, joined by “and”; a condition that tells them apart may be missing. Identical values can stand only once.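 Where inhibition never reached the appropriate level, the endpoint shown equals the highest concentration tested. Otherwise, values were interpolated linearly from a five-concentration, 48-hour dose response in 96-well plates. GI50 = concentration required for 50% inhibition of growth. The concentration for full growth arrest is given as TGI.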

Test systems include A549 NSCLC; LOX IMVI melanoma; MDA-MB-231 breast; NCI-H460 lung; SF-539 CNS; SK-MEL-28 melanoma; SNB-75 CNS; UACC-257 melanoma; M19-MEL melanoma.
What all share (assay): NCI-60 cell line screen, 48 h

Consider `CCN1C(=O)N(CC)C2C1NN=c1s/c(=C\c3cccc([N+](=O)[O-])c3)c(=O)n12` (configuration not stated), for which the GI50 in the assay on A549 NSCLC is 0.181 µM; with LOX IMVI melanoma, 0.0568 µM; with MDA-MB-231 breast, 0.231 µM; with NCI-H460 lung, 0.0491 µM; in the assay on SF-539 CNS, 0.0397 µM; with SNB-75 CNS it was 0.0378 µM. Moreover, the GI50 in the assay on UACC-257 melanoma was over 100 µM. In addition, the TGI with A549 NSCLC is over 100 µM; with LOX IMVI melanoma it was over 100 µM; with NCI-H460 lung, over 100 µM; in the assay on SF-539 CNS it was 0.396 µM; in the assay with SK-MEL-28 melanoma, over 100 µM; with SNB-75 CNS, over 100 µM. In addition, in the assay with UACC-257 melanoma, the TGI is over 100 µM.
With `CCN(CC)CCCNc1[nH]ncc2c(C)c3nc4ccccc4c3cc12`, the GI50 with A549 NSCLC is 0.398 µM; with LOX IMVI melanoma, 0.328 µM; in the assay with MDA-MB-231 breast, 0.709 µM; in the assay with NCI-H460 lung it was 0.22 µM; with SF-539 CNS, 0.373 µM; in the assay with SK-MEL-28 melanoma it was 2.83 µM. Besides, the GI50 in the assay on SNB-75 CNS is 0.64 µM; in the assay with UACC-257 melanoma, 1.4 µM. The TGI in the assay on A549 NSCLC is 2.94 µM and 14.2 µM; with LOX IMVI melanoma, 1.58 µM and 1.18 µM; with MDA-MB-231 breast, 2.65 µM and 2.51 µM; with NCI-H460 lung it was 1.36 µM and 2.69 µM; in the assay on SF-539 CNS it was 1.81 µM and 6.09 µM; in the assay with SK-MEL-28 melanoma, 13.9 µM and 4.06 µM. Moreover, the TGI with SNB-75 CNS was 1.99 µM and 5.3 µM; in the assay on UACC-257 melanoma it was 7.05 µM and 6.14 µM.
As to `CC1(C)CC(=O)c2c(ccc(C(=O)C[C@@H](N)CO)c2N)O1`, the GI50 is 1.42 µM in the assay with A549 NSCLC; 0.0986 µM in the assay on LOX IMVI melanoma; 3.13 µM with MDA-MB-231 breast; 0.166 µM in the assay on NCI-H460 lung; 0.399 µM with SF-539 CNS; 0.595 µM with SK-MEL-28 melanoma. Further, the GI50 with SNB-75 CNS was 17.7 µM; in the assay on UACC-257 melanoma, 3.25 µM. In addition, the TGI in the assay with A549 NSCLC was over 100 µM; in the assay with LOX IMVI melanoma, 1.11 µM; in the assay on MDA-MB-231 breast, over 100 µM; in the assay with NCI-H460 lung it was over 100 µM; in the assay on SF-539 CNS, 5.22 µM; in the assay with SK-MEL-28 melanoma it was 34.5 µM. Further, the values for the TGI with SNB-75 CNS and in the assay with UACC-257 melanoma were over 100 µM and 47.8 µM, respectively.
In the case of `COc1ccc2[nH]c(O)c(/C=c3/ccc4c(c3)N=C(c3ccc(F)cc3)N=4)c2c1`, the GI50 in the assay with A549 NSCLC is 3.11 µM; with LOX IMVI melanoma it was 2.92 µM; in the assay on MDA-MB-231 breast, 2.25 µM; with NCI-H460 lung it was 3.35 µM; in the assay on SF-539 CNS, 3.83 µM; in the assay on SK-MEL-28 melanoma, 4.34 µM. Further, the GI50 in the assay with SNB-75 CNS is 1.55 µM; with UACC-257 melanoma, 3.92 µM. For the same molecule, the TGI in the assay with A549 NSCLC is over 100 µM; in the assay on LOX IMVI melanoma, over 100 µM; with MDA-MB-231 breast, 6.04 µM; in the assay with NCI-H460 lung, 12.3 µM; in the assay with SF-539 CNS, 23.7 µM; in the assay on SK-MEL-28 melanoma, 28.8 µM. Further, the results for the TGI with SNB-75 CNS and in the assay on UACC-257 melanoma were 3.6 µM and 15.3 µM, respectively.
Take `O=C(Nc1cccc(-n2cc(-c3ccncc3)c(-c3ccc(O)c(Cl)c3)n2)c1)c1ccc(Cl)c(Cl)c1`: the GI50 in the assay on A549 NSCLC was 6.55 µM; in the assay with LOX IMVI melanoma, 7.21 µM; in the assay with MDA-MB-231 breast, 1.52 µM; with NCI-H460 lung, 3.91 µM; in the assay on SF-539 CNS, 3.47 µM; in the assay with SK-MEL-28 melanoma it was 3.45 µM. Besides, the values for the GI50 in the assay on SNB-75 CNS and with UACC-257 melanoma were 0.977 µM and 4.12 µM, respectively. The TGI in the assay with A549 NSCLC was over 100 µM; with LOX IMVI melanoma, over 100 µM; in the assay with MDA-MB-231 breast, 8.58 µM; in the assay on NCI-H460 lung it was over 100 µM; in the assay on SF-539 CNS it was over 100 µM; with SK-MEL-28 melanoma, 19.4 µM. The TGI is 18.4 µM with SNB-75 CNS and 31.3 µM with UACC-257 melanoma.
Take `COc1cc(C2C3=C(COC3=O)Nc3cc4c(cc32)OCO4)cc2c1OCO2` (configuration not stated): the GI50 in the assay on A549 NSCLC is 0.117 µM; with LOX IMVI melanoma, 0.0801 µM; in the assay with MDA-MB-231 breast, 0.128 µM; with NCI-H460 lung it was 0.0734 µM; with SF-539 CNS, 0.0394 µM; in the assay with SNB-75 CNS it was 0.0337 µM. Besides, the TGI in the assay with A549 NSCLC is over 100 µM; with LOX IMVI melanoma, over 100 µM; in the assay with MDA-MB-231 breast, over 100 µM; with NCI-H460 lung, over 35 µM; with SF-539 CNS it was over 64.5 µM; in the assay on SK-MEL-28 melanoma it was over 100 µM. In addition, the results for the TGI in the assay with SNB-75 CNS and in the assay on UACC-257 melanoma were 2.75 µM and over 100 µM, respectively.
Take `Clc1ccc(C2=NOC3C4CCC(C4)C23)cc1` (configuration not stated): the TGI with A549 NSCLC, in the assay on M19-MEL melanoma, in the assay with NCI-H460 lung, with SF-539 CNS, with SK-MEL-28 melanoma and in the assay with SNB-75 CNS was over 100 µM in each case. The molecule further came in with a TGI in the assay on UACC-257 melanoma of over 100 µM.
Take `Oc1ccccc1C=Nc1ccccc1N=Cc1ccccc1O.[Cu+2]`: the GI50 in the assay on A549 NSCLC is 5.88 µM; in the assay on LOX IMVI melanoma it was 2.85 µM; in the assay with MDA-MB-231 breast it was 6.08 µM; in the assay with NCI-H460 lung it was 12.3 µM; in the assay with SF-539 CNS it was 11.8 µM; in the assay with SK-MEL-28 melanoma it was 10.5 µM. Further, the results for the GI50 with SNB-75 CNS and with UACC-257 melanoma were 5.15 µM and 4.08 µM, respectively. Moreover, the TGI in the assay with A549 NSCLC is 18.2 µM; in the assay with LOX IMVI melanoma, 13.3 µM; in the assay with MDA-MB-231 breast it was 21.2 µM; with NCI-H460 lung, 30 µM; in the assay with SF-539 CNS, 27.7 µM; in the assay on SK-MEL-28 melanoma, 23.2 µM. Further, the TGI in the assay on SNB-75 CNS is 19.3 µM; in the assay on UACC-257 melanoma it was 15.6 µM.
For the molecule `CC(OC(=O)N(N(CCCl)S(C)(=O)=O)S(C)(=O)=O)c1ccc([N+](=O)[O-])cc1` (configuration not stated), the GI50 in the assay on A549 NSCLC was over 58.3 µM; in the assay on LOX IMVI melanoma, 51.2 µM; in the assay on MDA-MB-231 breast, over 51 µM; in the assay with NCI-H460 lung it was over 78.7 µM; in the assay with SF-539 CNS, 3.42 µM; in the assay on SK-MEL-28 melanoma it was over 100 µM. Further, the GI50 was over 89.1 µM with SNB-75 CNS and 76.1 µM in the assay on UACC-257 melanoma. The TGI with A549 NSCLC was over 100 µM; in the assay on LOX IMVI melanoma, over 100 µM; in the assay with MDA-MB-231 breast it was 96.8 µM; in the assay on NCI-H460 lung, over 100 µM; in the assay with SF-539 CNS it was over 47.5 µM; with SK-MEL-28 melanoma, over 100 µM. The TGI in the assay with SNB-75 CNS and in the assay with UACC-257 melanoma was over 100 µM throughout.
Regarding `CN(C)c1ccc(C(=C2C=CC(=[N+](C)C)C=C2)c2ccccc2Cl)cc1`, the GI50 in the assay on A549 NSCLC was 0.248 µM; in the assay with LOX IMVI melanoma, 0.224 µM; in the assay with MDA-MB-231 breast it was 0.338 µM; in the assay with NCI-H460 lung, 0.245 µM; in the assay on SF-539 CNS, 0.259 µM; in the assay with SK-MEL-28 melanoma it was 0.4 µM. The GI50 was 0.238 µM in the assay on SNB-75 CNS and 0.528 µM in the assay with UACC-257 melanoma. For the same molecule, the TGI in the assay on A549 NSCLC was found to be 4.24 µM; with LOX IMVI melanoma, 0.836 µM; in the assay with MDA-MB-231 breast, 1.73 µM; with NCI-H460 lung, 0.804 µM; in the assay on SF-539 CNS it was 0.951 µM; with SK-MEL-28 melanoma it was 1.44 µM. Further, the TGI in the assay with SNB-75 CNS came to 0.851 µM; in the assay on UACC-257 melanoma, 1.73 µM.
